Literature values as cited in US20200281877A1, “METHOD FOR PREVENTION AND TREATMENT OF ACNE, ECZEMA, PSORIASIS, AND RELATED DERMATOLOGICAL CONDITIONS WITH COMPOSITION COMPRISING A SPHINGOLIPID AND SULPHUR COMPOUNDS” (priority 2018, published 2020).

Tested on: SA_SCD (sphingolipid ceramide N-deacylase)

SMILES: [Zn+2] [bivalent zinc (Zn^2+)]
- hydrolytic activity of SA_SCD (optimal pH 6.0): strongly inhibited
- synthetic activity of SA_SCD (optimal pH 7.5): strongly inhibited
